Measured values from patent US20220152037A1, “USE OF GABAA RECEPTOR MODULATORS FOR TREATMENT OF PAIN” (NEUROCYCLE THERAPEUTIC, INC., priority 2019, published 2022).
Entries after “also recorded” stand apart in the source; their conditions may differ.

Tested on: rat model of fibromyalgia pain (reserpine-induced mechanical allodynia)
Assay: Mechanical allodynia (von Frey 50% response threshold) in reserpine-induced rat model of fibromyalgia pain
Assay type: in vivo
Excerpt: The purpose of the study is to assess the efficacy of the described compounds in the rat model of fibromyalgia pain.
Animals were assigned to treatment groups based on Day 0 pre-dose von Frey 50% response thresholds so that group means of the mean paw withdrawal latencies were approximately equal. Animals were ranked by pre- and post-reserpine baseline change from lowest to highest, and treatments were assigned randomly within stratified sub-groups according to the total number of treatment groups in the study.
The animals were dosed in sequence based on animal number, so that the distribution of treatment across a given set of animals was not predictable.
Mechanical fibromyalgia-associated allodynia is measured using […] (Stoelting©; Wood Dale, Ill., USA) with varying stiffness (0.04, 0.07, 0.16, 0.4, 1.0, 4.0, and 8.0 g) according to the up-down method 1. Animals were placed in individual acrylic chambers on a metal mesh surface and allowed to acclimate to their surroundings for a minimum of 15 minutes before testing. Each filament was presented perpendicular to the plantar surface with sufficient force to cause slight buckling against the paw and held for approximately 4 seconds or until a positive response is noted (paw sharply withdrawn). Testing was initiated with the 0.4 g filament. In the absence of a paw withdrawal response, the next stronger stimulus was presented. In the event of paw withdrawal, the next weaker stimulus was used. This process was repeated until 4 responses after the initial change in response (no response to positive response or positive response to no response) were obtained. […] The 50% response threshold is calculated using the formula:
50% response threshold (g)=(10(Xf+kδ))/10,000
• Pre-Injury mechanical fibromyalgia-associated allodynia testing (vF) • Reserpine injection
• Mechanical fibromyalgia-associated allodynia testing (vF; time baseline) • Dosing (time 0 min) • Mechanical fibromyalgia-associated allodynia testing (vF; time ˜1 hour) • Mechanical fibromyalgia-associated allodynia testing (vF; time ˜2 hour) • Mechanical fibromyalgia-associated allodynia testing (vF; time ˜4 hour) • Euthanasia
Pain was induced by three daily doses of 1 mg/kg reserpine, and mechanical fibromyalgia-associated allodynia was assessed using von Frey filaments. Mechanical fibromyalgia-associated allodynia was measured prior to and the first reserpine injection and 4 days following the third injection. GABAA receptor modulators (0.3 or 3 mg/kg), pregabalin (30 mg/kg) or vehicle (0.5% methylcellulose) were administered 4 days after the last reserpine injection, with mechanical fibromyalgia-associated allodynia being assessed prior to, and at 1, 2, and 4 hours post-administration to determine the efficacy of GABAA receptor modulators in this model.

Row | Structure (SMILES) | Mean Paw Response Thresholds (0.3 mg/kg PO group, Day 0, Baseline (post-reserpine, before dosing)) [g] | Mean Paw Response Thresholds (0.3 mg/kg PO group, Pre-reserpine (before dosing)) [g] | Mean Paw Response Thresholds (0.3 mg/kg PO, Day 0, 1 hr post-dosing) [g] | Mean Paw Response Thresholds (0.3 mg/kg PO, Day 0, 2 hr post-dosing) [g] | Mean Paw Response Thresholds (0.3 mg/kg PO, Day 0, 4 hr post-dosing) [g] | Mean Paw Response Thresholds (3 mg/kg PO group, Day 0, Baseline (post-reserpine, before dosing)) [g] | Mean Paw Response Thresholds (3 mg/kg PO group, Pre-reserpine (before dosing)) [g] | Mean Paw Response Thresholds (3 mg/kg PO, Day 0, 1 hr post-dosing) [g] | Mean Paw Response Thresholds (3 mg/kg PO, Day 0, 2 hr post-dosing) [g] | Mean Paw Response Thresholds (3 mg/kg PO, Day 0, 4 hr post-dosing) [g] | Mean Paw Response Thresholds (30 mg/kg PO group, Day 0, Baseline (post-reserpine, before dosing)) [g] | Mean Paw Response Thresholds (30 mg/kg PO group, Pre-reserpine (before dosing)) [g] | Reversal of reserpine-induced mechanical fibromyalgia-associated allodynia (response thresholds) (30 mg/kg PO, 1, 2 and 4 hour time points) | Mean Paw Response Thresholds (30 mg/kg PO, Day 0, 1 hr post-dosing) [g] | Mean Paw Response Thresholds (30 mg/kg PO, Day 0, 2 hr post-dosing) [g] | Mean Paw Response Thresholds (30 mg/kg PO, Day 0, 4 hr post-dosing) [g]
1 | CC(C)(O)c1cnn2c(-c3ccc(F)c(-c4c(F)cccc4C#N)c3)cnc2n1 [Compound 1] | 3.68 | 14.50 | 6.52 | 8.36 | 7.96 | 3.82 | 14.01 | 6.08 | 7.98 | 7.54 | – | – | – | – | – | –
2 | CC(C)C[C@H](CN)CC(=O)O [pregabalin, reference compound] | – | – | – | – | – | – | – | – | – | – | 3.84 | 14.55 | significantly increased median response thresholds at all of the time points following dosing; also recorded: significantly reversed mechanical fibromyalgia-associated allodynia | 9.34 | 10.17 | 10.23
